According to the kinase profiling compilation of Christmann-Franck et al. (2016):

Key:
Assay in all cases: radiometric filter-binding kinase assay
EPHB4 (human) = EPHB4 (human) (UniProt P54760); conditions: compound 100.0 µM; ATP 5 µM
JAK2 JH1 JH2 (human) = JAK2 JH1 JH2 (human) (UniProt O60674); conditions: compound 100.0 µM; ATP 5 µM
TBK1 (human) = TBK1 (human) (UniProt Q9UHD2); conditions: compound 100.0 µM; ATP 50 µM
DYRK1A (human) = DYRK1A (human) (UniProt Q13627); conditions: compound 100.0 µM; ATP 50 µM
INSRR (human) = INSRR (human) (UniProt P14616); conditions: compound 100.0 µM; ATP 5 µM
CDK2 CCNA2 (human) = CDK2 CCNA2 (human) (UniProt P20248+P24941); conditions: compound 100.0 µM; ATP 20 µM
IGF1R (human) = IGF1R (human) (UniProt P08069); conditions: compound 100.0 µM; ATP 5 µM
[1] = target: STK11 CAB39 STRADA (human) (UniProt Q9Y376+Q7RTN6+Q15831); conditions: compound 100.0 µM; ATP 20 µM
MAP2K6 (human) = MAP2K6 (human) (UniProt P52564); conditions: compound 100.0 µM; ATP 50 µM
CHEK1 (human) = CHEK1 (human) (UniProt O14757); conditions: compound 100.0 µM; ATP 20 µM
MAP3K7 TAB1 (human) = MAP3K7 TAB1 (human) (UniProt Q15750+O43318); conditions: compound 100.0 µM; ATP 5 µM
MARK4 (human) = MARK4 (human) (UniProt Q96L34); conditions: compound 100.0 µM; ATP 50 µM
MAPK15 (human) = MAPK15 (human) (UniProt Q8TD08); conditions: compound 100.0 µM; ATP 5 µM
HIPK1 (human) = HIPK1 (human) (UniProt Q86Z02); conditions: compound 100.0 µM; ATP 20 µM
PIM2 (human) = PIM2 (human) (UniProt Q9P1W9); conditions: compound 100.0 µM; ATP 5 µM
FLT1 (human) = FLT1 (human) (UniProt P17948); conditions: compound 100.0 µM; ATP 20 µM
MAPKAPK3 (human) = MAPKAPK3 (human) (UniProt Q16644); conditions: compound 100.0 µM; ATP 20 µM
MAPK11 (human) = MAPK11 (human) (UniProt Q15759); conditions: compound 100.0 µM; ATP 20 µM
PKN2 (human) = PKN2 (human) (UniProt Q16513); conditions: compound 100.0 µM; ATP 5 µM
ROCK2 (rat) = conditions: compound 100.0 µM; ATP 20 µM; accession and sequence are those of the human protein
CHEK2 (human) = CHEK2 (human) (UniProt O96017); conditions: compound 100.0 µM; ATP 20 µM
TTK (human) = TTK (human) (UniProt P33981); conditions: compound 100.0 µM; ATP 20 µM
PIM3 (human) = PIM3 (human) (UniProt Q86V86); conditions: compound 100.0 µM; ATP 20 µM
RPS6KA1 KD1 KD2 (human) = RPS6KA1 KD1 KD2 (human) (UniProt Q15418); conditions: compound 100.0 µM; ATP 50 µM
NEK2 (human) = NEK2 (human) (UniProt P51955); conditions: compound 100.0 µM; ATP 50 µM
RIPK2 (human) = RIPK2 (human) (UniProt O43353); conditions: compound 100.0 µM; ATP 20 µM
[2] = test system: RPS6KB1 (human), P23443 [T412E]; conditions: compound 100.0 µM; ATP 20 µM
[3] = test system: AKT2 (human), P31751 [S474D]; conditions: compound 100.0 µM; ATP 50 µM
MAP3K1 (human) = MAP3K1 (human) (UniProt Q13233); conditions: compound 100.0 µM; ATP 50 µM
STK3 (human) = STK3 (human) (UniProt Q13188); conditions: compound 100.0 µM; ATP 20 µM
MAP2K2 (human) = MAP2K2 (human) (UniProt P36507); conditions: compound 100.0 µM; ATP 5 µM
NTRK1 (human) = NTRK1 (human) (UniProt P04629); conditions: compound 100.0 µM; ATP 20 µM
PLK1 (human) = PLK1 (human) (UniProt P53350); conditions: compound 100.0 µM; ATP 5 µM
EPHB2 (human) = EPHB2 (human) (UniProt P29323); conditions: compound 100.0 µM; ATP 20 µM
HIPK3 (human) = HIPK3 (human) (UniProt Q9H422); conditions: compound 100.0 µM; ATP 20 µM
[4] = target: PRKAA1 PRKAB2 PRKAG1 (human) (UniProt O43741+Q13131+P54619); conditions: compound 100.0 µM; ATP 20 µM
PRKCG (human) = PRKCG (human) (UniProt P05129); conditions: compound 100.0 µM; ATP 20 µM
PRKCZ (human) = PRKCZ (human) (UniProt Q05513); conditions: compound 100.0 µM; ATP 5 µM
MAPK10 (human) = MAPK10 (human) (UniProt P53779); conditions: compound 100.0 µM; ATP 20 µM

Sequence of MAP3K7 TAB1 (human) (O43318 whole entry, looked up): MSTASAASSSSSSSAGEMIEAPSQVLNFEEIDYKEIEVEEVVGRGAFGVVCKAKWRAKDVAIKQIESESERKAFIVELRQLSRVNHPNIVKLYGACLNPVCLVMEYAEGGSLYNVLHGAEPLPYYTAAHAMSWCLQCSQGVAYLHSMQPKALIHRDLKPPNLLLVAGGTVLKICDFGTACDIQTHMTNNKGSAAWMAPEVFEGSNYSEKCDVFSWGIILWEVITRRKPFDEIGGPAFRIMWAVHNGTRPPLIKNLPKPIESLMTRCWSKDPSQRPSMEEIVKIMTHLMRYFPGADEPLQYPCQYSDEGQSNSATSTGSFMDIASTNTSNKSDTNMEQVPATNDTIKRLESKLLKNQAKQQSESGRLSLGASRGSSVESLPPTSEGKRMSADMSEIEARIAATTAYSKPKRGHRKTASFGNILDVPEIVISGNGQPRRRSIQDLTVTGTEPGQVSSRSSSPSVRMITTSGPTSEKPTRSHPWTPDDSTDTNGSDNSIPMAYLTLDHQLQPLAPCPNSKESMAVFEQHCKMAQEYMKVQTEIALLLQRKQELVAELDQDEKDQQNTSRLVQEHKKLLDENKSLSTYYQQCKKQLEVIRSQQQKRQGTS
Sequence of MAP3K7 TAB1 (human) (Q15750 whole entry, looked up): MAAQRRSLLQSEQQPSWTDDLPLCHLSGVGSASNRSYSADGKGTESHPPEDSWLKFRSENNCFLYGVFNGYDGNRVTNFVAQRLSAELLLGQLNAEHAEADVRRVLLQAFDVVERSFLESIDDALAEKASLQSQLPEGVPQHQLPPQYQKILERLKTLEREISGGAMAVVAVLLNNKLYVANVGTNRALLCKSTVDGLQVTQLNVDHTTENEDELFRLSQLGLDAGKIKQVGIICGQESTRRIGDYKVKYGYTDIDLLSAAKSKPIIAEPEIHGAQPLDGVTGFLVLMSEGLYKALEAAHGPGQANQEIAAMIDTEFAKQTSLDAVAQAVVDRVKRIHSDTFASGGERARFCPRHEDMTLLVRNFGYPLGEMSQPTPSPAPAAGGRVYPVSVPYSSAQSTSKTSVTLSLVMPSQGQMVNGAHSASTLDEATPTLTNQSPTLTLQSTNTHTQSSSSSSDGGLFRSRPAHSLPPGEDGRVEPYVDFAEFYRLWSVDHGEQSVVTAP
Sequence of MAPK15 (human) (Q8TD08 whole entry, looked up): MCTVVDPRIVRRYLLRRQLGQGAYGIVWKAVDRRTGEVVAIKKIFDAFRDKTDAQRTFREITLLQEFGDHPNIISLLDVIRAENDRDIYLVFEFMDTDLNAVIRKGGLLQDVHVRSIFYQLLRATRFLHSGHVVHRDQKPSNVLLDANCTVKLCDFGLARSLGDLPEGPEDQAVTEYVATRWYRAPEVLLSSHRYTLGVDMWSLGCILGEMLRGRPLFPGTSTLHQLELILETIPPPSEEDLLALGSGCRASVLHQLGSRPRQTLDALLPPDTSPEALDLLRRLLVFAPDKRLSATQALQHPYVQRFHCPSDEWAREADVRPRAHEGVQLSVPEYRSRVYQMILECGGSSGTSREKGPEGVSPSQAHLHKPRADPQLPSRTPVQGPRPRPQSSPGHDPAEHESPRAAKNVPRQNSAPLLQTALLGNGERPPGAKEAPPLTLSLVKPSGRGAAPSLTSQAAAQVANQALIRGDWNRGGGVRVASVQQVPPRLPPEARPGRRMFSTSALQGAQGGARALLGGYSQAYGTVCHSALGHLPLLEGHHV
Sequence of STK11 CAB39 STRADA (human) (Q15831 whole entry, looked up): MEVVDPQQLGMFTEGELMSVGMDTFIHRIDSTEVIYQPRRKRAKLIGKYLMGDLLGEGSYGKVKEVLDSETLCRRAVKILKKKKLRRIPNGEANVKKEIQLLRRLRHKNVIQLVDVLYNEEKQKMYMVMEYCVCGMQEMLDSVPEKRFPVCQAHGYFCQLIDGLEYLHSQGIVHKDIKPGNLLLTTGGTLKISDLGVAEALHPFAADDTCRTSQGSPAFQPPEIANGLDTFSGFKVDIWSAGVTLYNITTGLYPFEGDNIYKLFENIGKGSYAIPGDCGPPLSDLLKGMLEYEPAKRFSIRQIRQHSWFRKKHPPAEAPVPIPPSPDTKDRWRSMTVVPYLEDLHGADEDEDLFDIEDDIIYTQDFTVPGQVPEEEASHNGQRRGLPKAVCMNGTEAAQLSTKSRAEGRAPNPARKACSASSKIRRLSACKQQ
Sequence of STK11 CAB39 STRADA (human) (Q7RTN6 whole entry, looked up): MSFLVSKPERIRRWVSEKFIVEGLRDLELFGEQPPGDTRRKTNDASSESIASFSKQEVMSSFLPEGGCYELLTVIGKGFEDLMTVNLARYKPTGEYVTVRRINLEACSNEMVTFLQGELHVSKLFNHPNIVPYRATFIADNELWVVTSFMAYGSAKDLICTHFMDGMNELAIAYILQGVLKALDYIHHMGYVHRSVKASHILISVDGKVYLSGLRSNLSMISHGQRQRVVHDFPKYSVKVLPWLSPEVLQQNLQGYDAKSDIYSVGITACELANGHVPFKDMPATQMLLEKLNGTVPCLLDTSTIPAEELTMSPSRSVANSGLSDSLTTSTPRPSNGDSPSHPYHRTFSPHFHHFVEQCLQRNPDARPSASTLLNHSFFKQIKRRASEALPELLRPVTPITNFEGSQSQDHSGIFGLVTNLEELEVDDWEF
Sequence of STK11 CAB39 STRADA (human) (Q9Y376 whole entry, looked up): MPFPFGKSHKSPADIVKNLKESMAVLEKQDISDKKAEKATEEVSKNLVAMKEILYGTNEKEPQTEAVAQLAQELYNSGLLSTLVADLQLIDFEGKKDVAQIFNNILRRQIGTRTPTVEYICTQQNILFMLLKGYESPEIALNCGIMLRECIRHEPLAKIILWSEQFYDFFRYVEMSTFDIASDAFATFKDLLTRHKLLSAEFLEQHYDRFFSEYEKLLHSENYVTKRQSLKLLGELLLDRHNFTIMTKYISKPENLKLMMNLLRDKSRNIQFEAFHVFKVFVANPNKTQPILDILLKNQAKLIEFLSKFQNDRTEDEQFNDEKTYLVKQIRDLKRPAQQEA
Sequence of HIPK1 (human) (Q86Z02 whole entry, looked up): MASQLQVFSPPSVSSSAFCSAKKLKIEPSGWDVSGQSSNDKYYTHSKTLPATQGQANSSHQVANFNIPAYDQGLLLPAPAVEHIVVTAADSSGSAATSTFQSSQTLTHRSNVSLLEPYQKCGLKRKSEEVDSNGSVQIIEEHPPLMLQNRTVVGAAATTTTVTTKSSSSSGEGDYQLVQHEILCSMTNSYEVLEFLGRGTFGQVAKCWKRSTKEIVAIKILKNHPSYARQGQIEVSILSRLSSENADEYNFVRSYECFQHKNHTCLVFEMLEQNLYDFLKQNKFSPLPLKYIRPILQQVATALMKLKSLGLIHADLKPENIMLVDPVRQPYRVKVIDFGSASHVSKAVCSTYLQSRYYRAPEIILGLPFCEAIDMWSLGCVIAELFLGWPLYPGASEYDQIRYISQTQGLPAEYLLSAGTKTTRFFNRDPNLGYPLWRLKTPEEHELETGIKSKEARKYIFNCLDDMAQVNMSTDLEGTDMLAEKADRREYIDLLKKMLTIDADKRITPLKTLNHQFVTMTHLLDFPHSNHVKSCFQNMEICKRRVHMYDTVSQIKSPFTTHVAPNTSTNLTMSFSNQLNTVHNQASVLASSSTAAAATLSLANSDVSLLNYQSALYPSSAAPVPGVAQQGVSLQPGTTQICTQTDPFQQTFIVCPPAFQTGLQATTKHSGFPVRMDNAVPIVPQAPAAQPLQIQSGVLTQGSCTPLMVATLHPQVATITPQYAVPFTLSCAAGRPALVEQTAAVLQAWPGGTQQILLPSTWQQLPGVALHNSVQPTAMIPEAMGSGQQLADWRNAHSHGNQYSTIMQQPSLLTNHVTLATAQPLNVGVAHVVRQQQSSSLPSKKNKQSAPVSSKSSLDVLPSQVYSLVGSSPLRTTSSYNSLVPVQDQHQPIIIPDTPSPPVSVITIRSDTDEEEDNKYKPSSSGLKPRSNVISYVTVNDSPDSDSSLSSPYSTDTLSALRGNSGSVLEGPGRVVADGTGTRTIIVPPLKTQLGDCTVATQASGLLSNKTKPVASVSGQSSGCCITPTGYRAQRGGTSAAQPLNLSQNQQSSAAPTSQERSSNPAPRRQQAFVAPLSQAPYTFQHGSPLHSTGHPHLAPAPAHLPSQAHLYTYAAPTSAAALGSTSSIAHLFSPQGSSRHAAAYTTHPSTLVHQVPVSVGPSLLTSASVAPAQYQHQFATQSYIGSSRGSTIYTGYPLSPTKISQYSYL
Sequence of TBK1 (human) (Q9UHD2 whole entry, looked up): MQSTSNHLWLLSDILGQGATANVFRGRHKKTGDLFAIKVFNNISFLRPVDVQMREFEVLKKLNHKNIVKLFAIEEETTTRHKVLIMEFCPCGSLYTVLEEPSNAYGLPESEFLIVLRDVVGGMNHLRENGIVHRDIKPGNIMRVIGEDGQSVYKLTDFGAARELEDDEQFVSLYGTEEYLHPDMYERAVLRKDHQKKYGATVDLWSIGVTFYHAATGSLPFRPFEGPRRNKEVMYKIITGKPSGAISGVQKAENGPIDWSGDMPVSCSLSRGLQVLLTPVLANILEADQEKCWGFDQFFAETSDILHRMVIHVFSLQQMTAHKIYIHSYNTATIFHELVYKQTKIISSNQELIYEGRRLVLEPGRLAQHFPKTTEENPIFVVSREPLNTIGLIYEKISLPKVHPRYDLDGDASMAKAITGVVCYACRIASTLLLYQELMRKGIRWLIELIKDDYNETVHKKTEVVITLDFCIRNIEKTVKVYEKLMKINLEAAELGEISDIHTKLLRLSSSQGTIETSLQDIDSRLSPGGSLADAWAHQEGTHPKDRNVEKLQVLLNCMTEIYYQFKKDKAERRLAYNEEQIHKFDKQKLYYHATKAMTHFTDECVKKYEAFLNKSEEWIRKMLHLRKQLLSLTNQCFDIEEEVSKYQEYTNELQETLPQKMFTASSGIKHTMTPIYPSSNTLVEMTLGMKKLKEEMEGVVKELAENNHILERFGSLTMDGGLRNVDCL

| SMILES | inhibition (EPHB4 (human)) [%] | inhibition (JAK2 JH1 JH2 (human)) [%] | inhibition (TBK1 (human)) [%] | inhibition (DYRK1A (human)) [%] | inhibition (INSRR (human)) [%] | inhibition (CDK2 CCNA2 (human)) [%] | inhibition (IGF1R (human)) [%] | inhibition [1] [%] | inhibition (MAP2K6 (human)) [%] | inhibition (CHEK1 (human)) [%] | inhibition (MAP3K7 TAB1 (human)) [%] | inhibition (MARK4 (human)) [%] | inhibition (HIPK1 (human)) [%] | inhibition (PIM2 (human)) [%] | inhibition (FLT1 (human)) [%] | inhibition (MAPKAPK3 (human)) [%] | inhibition (MAPK11 (human)) [%] | inhibition (PKN2 (human)) [%] | inhibition (ROCK2 (rat)) [%] | inhibition (MAPK15 (human)) [%] | also measured |
| --- | --- | --- | --- | --- | --- | --- | --- | --- | --- | --- | --- | --- | --- | --- | --- | --- | --- | --- | --- | --- | --- |
| Nc1cnc2c(-c3c(F)cccc3F)cccn2c1=O | 39 | 89 | 23 | 55 | 51 | 88 | 85 | 62 | 10 | 0 | 80 | 62 | 11 | 21 | 72 | 54 | 13 | 73 | 76 | 36 | inhibition (CHEK2 (human)): 25%; inhibition (TTK (human)): 45%; inhibition (PIM3 (human)): 35%; inhibition (RPS6KA1 KD1 KD2 (human)): 21%; inhibition (NEK2 (human)): 0%; inhibition (RIPK2 (human)): 3%; inhibition [2]: 0%; inhibition [3]: 68%; inhibition (MAP3K1 (human)): 21%; inhibition (STK3 (human)): 64%; inhibition (MAP2K2 (human)): 71%; inhibition (NTRK1 (human)): 88%; inhibition (PLK1 (human)): 0%; inhibition (EPHB2 (human)): 29%; inhibition (HIPK3 (human)): 23%; inhibition [4]: 40%; inhibition (PRKCG (human)): 25%; inhibition (PRKCZ (human)): 0%; inhibition (MAPK10 (human)): 33% |
| O=C(Nc1cnc2[nH]cnn2c1=O)c1ccccc1 | 6 | 0 | 24 | 0 | 0 | 0 | 0 | 0 | 3 | 0 | 15 | 0 | 0 | 0 | 0 | 0 | 2 | 0 | 0 | 4 | inhibition (CHEK2 (human)): 0%; inhibition (TTK (human)): 0%; inhibition (PIM3 (human)): 0%; inhibition (RPS6KA1 KD1 KD2 (human)): 15%; inhibition (NEK2 (human)): 0%; inhibition (RIPK2 (human)): 0%; inhibition [2]: 0%; inhibition [3]: 15%; inhibition (MAP3K1 (human)): 6%; inhibition (STK3 (human)): 0%; inhibition (MAP2K2 (human)): 0%; inhibition (NTRK1 (human)): 0%; inhibition (PLK1 (human)): 0%; inhibition (EPHB2 (human)): 6%; inhibition (HIPK3 (human)): 0%; inhibition [4]: 0%; inhibition (PRKCG (human)): 2%; inhibition (PRKCZ (human)): 0%; inhibition (MAPK10 (human)): 0% |

Further lines, with some results ahead:

| inhibition (EPHB4 (human)) [%] | inhibition (JAK2 JH1 JH2 (human)) [%] | inhibition (TBK1 (human)) [%] | inhibition (DYRK1A (human)) [%] | inhibition (INSRR (human)) [%] | inhibition (CDK2 CCNA2 (human)) [%] | inhibition (IGF1R (human)) [%] | inhibition [1] [%] | inhibition (MAP2K6 (human)) [%] | inhibition (CHEK1 (human)) [%] | inhibition (MAP3K7 TAB1 (human)) [%] | inhibition (MARK4 (human)) [%] | inhibition (HIPK1 (human)) [%] | inhibition (PIM2 (human)) [%] | inhibition (FLT1 (human)) [%] | inhibition (MAPKAPK3 (human)) [%] | inhibition (MAPK11 (human)) [%] | inhibition (PKN2 (human)) [%] | inhibition (ROCK2 (rat)) [%] | SMILES | inhibition (MAPK15 (human)) [%] | also measured |
| --- | --- | --- | --- | --- | --- | --- | --- | --- | --- | --- | --- | --- | --- | --- | --- | --- | --- | --- | --- | --- | --- |
| 13 | 11 | 9 | 30 | 4 | 14 | 0 | 0 | 1 | 0 | 31 | 22 | 0 | 16 | 0 | 38 | 3 | 16 | 0 | CC(C)(C)Nc1c(COCc2ccccc2)nc2[nH]cnn12 | 1 | inhibition (CHEK2 (human)): 19%; inhibition (TTK (human)): 7%; inhibition (PIM3 (human)): 18%; inhibition (RPS6KA1 KD1 KD2 (human)): 3%; inhibition (NEK2 (human)): 6%; inhibition (RIPK2 (human)): 13%; inhibition [2]: 0%; inhibition [3]: 39%; inhibition (MAP3K1 (human)): 0%; inhibition (STK3 (human)): 0%; inhibition (MAP2K2 (human)): 11%; inhibition (NTRK1 (human)): 6%; inhibition (PLK1 (human)): 0%; inhibition (EPHB2 (human)): 1%; inhibition (HIPK3 (human)): 1%; inhibition [4]: 18%; inhibition (PRKCG (human)): 8%; inhibition (PRKCZ (human)): 0%; inhibition (MAPK10 (human)): 0% |
| 56 | 76 | 72 | 77 | 71 | 54 | 91 | 2 | 3 | 45 | 86 | 44 | 28 | 16 | 82 | 40 | 34 | 44 | 52 | Nc1nc2cnc(-c3ccccc3)cn2n1 | 74 | inhibition (CHEK2 (human)): 81%; inhibition (TTK (human)): 34%; inhibition (PIM3 (human)): 55%; inhibition (RPS6KA1 KD1 KD2 (human)): 34%; inhibition (NEK2 (human)): 77%; inhibition (RIPK2 (human)): 56%; inhibition [2]: 9%; inhibition [3]: 32%; inhibition (MAP3K1 (human)): 34%; inhibition (STK3 (human)): 6%; inhibition (MAP2K2 (human)): 35%; inhibition (NTRK1 (human)): 61%; inhibition (PLK1 (human)): 18%; inhibition (EPHB2 (human)): 30%; inhibition (HIPK3 (human)): 16%; inhibition [4]: 7%; inhibition (PRKCG (human)): 24%; inhibition (PRKCZ (human)): 13%; inhibition (MAPK10 (human)): 47% |
| 5 | 9 | 14 | 0 | 11 | 0 | 0 | 0 | 0 | 2 | 26 | 13 | 24 | 9 | 31 | 33 | 23 | 0 | 11 | O=C(Nc1cnc2[nH]ccn2c1=O)c1ccccc1 | 7 | inhibition (CHEK2 (human)): 32%; inhibition (TTK (human)): 0%; inhibition (PIM3 (human)): 0%; inhibition (RPS6KA1 KD1 KD2 (human)): 23%; inhibition (NEK2 (human)): 6%; inhibition (RIPK2 (human)): 16%; inhibition [2]: 4%; inhibition [3]: 14%; inhibition (MAP3K1 (human)): 3%; inhibition (STK3 (human)): 21%; inhibition (MAP2K2 (human)): 0%; inhibition (NTRK1 (human)): 39%; inhibition (PLK1 (human)): 10%; inhibition (EPHB2 (human)): 14%; inhibition (HIPK3 (human)): 0%; inhibition [4]: 0%; inhibition (PRKCG (human)): 0%; inhibition (PRKCZ (human)): 3%; inhibition (MAPK10 (human)): 0% |
